Values after ≈ are worked out from the molar mass of the structure shown. “Also recorded” adds a separate entry of the source. Where two headings read alike, the source gives them in different places.
Assays:
TEM-1 β-lactamase = target: T1, TEM-1 β-lactamase (Escherichia coli, UniProt P62593); assay: Cefotaxime resistance / hydrolytic activity of TEM-1 β-lactamase and mutants in E. coli; assay type: cell-based; conditions: wild type TEM-1
T1 construct: mutants cloned in pBC KS+
Protocol: In this experiment we set to improve the hydrolytic activity of the enzyme TEM-1 β-lactamase on the poorly hydrolysed substrate cefotaxime [minimum inhibitory concentration (MIC)=0.02 μg/ml] by repeated rounds of random mutagenesis and selection on increasing concentrations of the antibiotic. The best mutants selected in the first round are subjected to a second round of mutagenesis and selection in the presence of higher concentration of antibiotic. A stepwise improvement of the efficiency of TEM-1 hydrolytic activity is attained by progressively increasing the selective pressure.
The wild type TEM-1 gene from the plasmid pBR322 was used as a template for PCT amplification in the presence of dPTP and 8-oxodGTP in addition to the four normal dNTPs. The pool of mutants generated was cloned in the vector pBC KS^+ and the library of mutants transformed in E. coli by electroporation. […] Selected mutant were analysed by sequencing and the results of the first round of mutagenesis and selection are shown in Table 3A. A different number of cycles of the mutagenic PCT was used to generate four independent libraries of mutants (libA, libB, libC and libD) each characterised by a different frequency of mutation (0.3% for libA, 0.3% for libB, 1.8% for libC and 6.3% for libD), as determined by sequence analysis of unselected clones. […]

target DNA sequence MH22 = assay: PCR mutagenesis of target DNA, cloning and sequencing; assay type: biochemical; conditions: for Number of point mutations, coding / Number of point mutations, silent / Number of point mutations, total: bases sequenced: dPTP 4093, 8-oxodGTP 5463, dPTP & 8-oxodGTP 3751; for additional (unexpected) mutations found: dPTP: out of 4093 bp, 8-oxodGTP: out of 5463 bp; for linear relation of mutation frequency with number of PCR cycles, up to: equimolar
Protocol: The four normal dNTPs and the analogues were used in equimolar amounts (500 μM);
Data obtained after different number of PCR cycles have been pooled and figures express percentage of total number of mutations;
Numbers at the top of the Table indicate how many times a particular codon is present in the target sequence. Open squares indicate single point mutations within a particular codon. Filled circles indicate two point mutations within a particular codon. […] Squares in shaded areas indicate silent mutations;
Filled in symbols indicate a single nucleotide change within a codon, open symbols denote two nucleotide changes within the same codon. […] Amino acids are grouped in five classes according to their physico-chemical characteristics: glycine, non-polar, polar, positively charged, and negatively charged.
The first number at the 5'-end of each sequence indicates how many PCR cycles were allowed in the presence of the analogue(s). The second number identifies different clones.
In order to investigate the mutations resulting when dPTP or 8oxodGTP was used in DNA synthesis reactions, PCR reactions were set up in which dPTP was added in equimolar concentrations to the four normal dNTPs. The DNA was amplified for a variable number of cycles and, in order to eliminate the incorporated base analogues, an aliquot of the amplified DNA was used as template in a second PCR amplification in which only the four normal dNTPs were used. The PCR product was subsequently cloned, and some of the clones sequenced (in this way, the pattern of mutation was not influenced by the DNA repair mechanisms of the E. coli host).
DNA amplification reactions were carried out for variable number of cycles, as indicated in FIGS. 11A-11C by the number preceding the point in the clone designation.
For mutagenesis experiments, 10 fmoles of template DNA were amplified using 0.5 μl of AmpliTaq polymerase (5 U/μl, Applied Biosystems) in a 20 μl reaction containing the appropriate sense and antisense […] at 0.5 μM, 2 mM MgCl2, 10 mM Tris-HCl pH8.3, 50 mM KCl, 1 g/l gelatine and dATP, dCTP, dGTP, TTP, dPTP and/or 8-oxodGTP, each at 500 μM. After various cycles (92° C. for 1 min, 55° C. for 1.5 min, 75° C. for 5 min), 1 μl of the amplified material was used in a second PCR in which the same conditions as above were used except that no dPTP or 8-oxodGTP were added to the reaction mixture. The product of the second PCR was digested with BstEII and PstI and cloned into M13VHPCRl vector (Jones et al., 1986 Nature 321, 522-525).

[1] = test system: thermostable Tth DNA polymerase; conditions: Pavlov et al., 1994; cited from earlier work
Taq Polymerase [2] = target: T2, Taq Polymerase (Thermus aquaticus, UniProt P19821); assay: Substrate for Taq polymerase in PCR, replacing normal dNTPs; assay type: biochemical
T2 sequence (P19821 whole entry): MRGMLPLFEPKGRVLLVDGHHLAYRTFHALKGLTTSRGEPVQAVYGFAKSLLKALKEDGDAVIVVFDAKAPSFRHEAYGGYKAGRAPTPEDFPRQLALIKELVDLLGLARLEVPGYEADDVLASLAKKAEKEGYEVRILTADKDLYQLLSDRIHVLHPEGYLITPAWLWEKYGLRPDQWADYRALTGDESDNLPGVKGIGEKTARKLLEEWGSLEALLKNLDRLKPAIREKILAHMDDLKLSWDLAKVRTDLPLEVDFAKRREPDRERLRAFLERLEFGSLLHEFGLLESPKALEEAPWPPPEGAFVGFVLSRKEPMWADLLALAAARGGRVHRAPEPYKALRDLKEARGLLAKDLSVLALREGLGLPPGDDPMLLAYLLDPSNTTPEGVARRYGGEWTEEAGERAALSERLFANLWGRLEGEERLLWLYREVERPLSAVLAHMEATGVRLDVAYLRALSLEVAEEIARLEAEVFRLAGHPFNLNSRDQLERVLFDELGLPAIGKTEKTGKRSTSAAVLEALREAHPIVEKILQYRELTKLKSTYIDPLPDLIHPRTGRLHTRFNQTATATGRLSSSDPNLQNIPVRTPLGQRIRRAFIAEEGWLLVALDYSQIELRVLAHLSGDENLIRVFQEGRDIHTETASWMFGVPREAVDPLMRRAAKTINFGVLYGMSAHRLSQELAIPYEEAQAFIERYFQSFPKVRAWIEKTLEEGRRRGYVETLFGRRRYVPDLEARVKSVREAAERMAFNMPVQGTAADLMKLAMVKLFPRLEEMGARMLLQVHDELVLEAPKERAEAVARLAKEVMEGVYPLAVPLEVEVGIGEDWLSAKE
Protocol: All dNTPs were at 500 μM, except in sample 4 and 7 where dPTP was at 1 mM.
B) The PCR reaction mix included: dATP, dCTP and TTP at 500 μm. Samples 1 to 4 contained dGTP at 50 μM, 25 μM, […] and 6.25 μM respectively, and 8-oxodGTP at 500 μM. Samples 5 to 8 contained the same decreasing amounts of dGTP but no 8-oxodGTP;
Lanes 5 to 8 show the PCR products obtained using the same conditions but in the absence of 8-oxodGTP.

[3] = test system: E.coli DNA polymerase I Klenow fragment; conditions: 37° C., Purmal et al., 1994, cited from earlier work
Taq Polymerase [4] = target: T2, Taq Polymerase; assay: Steady state kinetics of insertion opposite template A or G, primed synthetic oligonucleotide templates; assay type: biochemical; conditions: for Relative Efficiency / Vmax /Km / Vmax^(rel): 55° C.
Text: FIGS. 5A-D show (Top): Plots of initial velocities against [dNTP] for the incorporation by Taq polymerase of dPTP opposite A (A), TTP opposite A (B), dPTP opposite G (C), and dCTP opposite G (D).
In order to compare the relative efficiencies of insertion of dPTP opposite template adenine and guanine residues respectively, we adopted the procedure of Boosalis et al. (Boosalis et al., 1987 J. Biol. Chem. 262, 14689-14696) for the determination of steady state kinetics using one of two primed synthetic oligonucleotide templates (FIG. 5). The ^32 P-labelled primer in each case was extended by the incorporation of dGTP at two positions, followed by dPTP (template 1 and 2), TTP (template 1) or dCTP (template 2). Separation of the products by PAGE followed by quantitation of the radioactivity using a PhosphorImager allowed the determination of the initial velocities (Boosalis et al., 1987). Due to the very high extension rate of Taq polymerase, the kinetic parameters were determined at 55° C. The velocities for the insertion of the particular triphosphate opposite template (Vmax) and Km values (μM) for particular insertions were determined from non-linear regression fitting to the Michaelis-Menten equation.

Taq Polymerase [5] = target: T2, Taq Polymerase; conditions: cited from earlier work
[6] = Singer et al. 1989; cited from earlier work

T1 sequence (P62593 24-286 limits assumed): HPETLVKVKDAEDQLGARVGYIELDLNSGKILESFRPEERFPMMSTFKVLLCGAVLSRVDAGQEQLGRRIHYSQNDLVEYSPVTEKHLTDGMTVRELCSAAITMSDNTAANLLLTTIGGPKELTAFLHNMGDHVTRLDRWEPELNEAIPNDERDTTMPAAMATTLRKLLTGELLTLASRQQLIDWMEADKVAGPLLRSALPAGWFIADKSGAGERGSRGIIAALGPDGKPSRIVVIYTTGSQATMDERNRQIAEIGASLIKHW

## CO/N=C(\C(=O)N[C@@H]1C(=O)N2C(C(=O)O)=C(COC(C)=O)CS[C@H]12)c1csc(N)n1 [cefotaxime]
TEM-1 β-lactamase
  minimum inhibitory concentration (MIC): 0.02 µg/mL (≈ 0.0439 µM)

## Nc1nc2c(nc(O)n2[C@H]2C[C@H](O)[C@@H](COP(=O)(O)OP(=O)(O)OP(=O)(O)O)O2)c(=O)[nH]1 [8-oxodGTP, 2'-Deoxy-8-hydroxyguanosine 5'-triphosphate]
Target DNA sequence MH22
  types of mutation produced: two transversions (A→C and T→G)
  Number of point mutations, coding: 65
  Number of point mutations, silent: 16
  Number of point mutations, total: 91
  additional (unexpected) mutations found: One C→A transversion; also recorded: two A→G transitions and one G→A transition
Target DNA sequence MH22; 500 μM, pooled cycles
  A→C transversions of total mutations: 38.8%
  T→G transversions of total mutations: 59%
Target DNA sequence MH22; 8 mutant clones, equimolar with dNTPs
  codons replaced: 18 codons
Target DNA sequence MH22; 500 μM
  linear relation of mutation frequency with number of PCR cycles, up to: ≥ 30 cycles
[1]
  A→C transversions rate: approximately 1%
Taq Polymerase [2]; normal or limiting dGTP, higher 8-oxodGTP
  incorporation into DNA and its extension: some incorporation into DNA and its extension could be demonstrated
[3]; read-out: Km for insertion opposite A
  Km: 58 µM
[3]; read-out: Km for insertion opposite C
  Km: 63 µM

## O=C1NC2=NOCCC2=CN1[C@H]1C[C@H](O)[C@@H](COP(=O)(O)OP(=O)(O)OP(=O)(O)O)O1 [dPTP, 6-(2-deoxy-β-D-erythropentofuranosyl)-3,4-dihydro-8H-pyrimido-[4,5-c][1,2]oxazine-7-one 5'-triphosphate]
Target DNA sequence MH22
  mutagenic efficiency compared: much more efficient mutagen than 8-oxodGTP
  types of mutation produced: four transitions (A→G, T→C, G→A and C→T)
  Number of point mutations, coding: 318
  Number of point mutations, silent: 66
  Number of point mutations, total: 384
  additional (unexpected) mutations found: one T→G and two A→T transversions
Target DNA sequence MH22; 500 μM, pooled cycles
  A→G mutations of total mutations: 46.6%
  C→T mutations of total mutations: 8%
  G→A mutations of total mutations: 9.2%
  T→C mutations of total mutations: 35.5%
Target DNA sequence MH22; 12 mutant clones, equimolar with dNTPs
  codons mutated to alternative ones, out of 43 codons present: 40 codons
Target DNA sequence MH22; 500 μM
  linear relation of mutation frequency with number of PCR cycles, up to: 20 cycles
Taq Polymerase [2]; 350 base pair DNA, 30 cycles
  replacement of TTP in PCR: could completely replace TTP and yield amounts of product comparable to those obtained using the four normal triphosphates
  replacement of dCTP in PCR: could replace dCTP to some extent
Taq Polymerase [4]
  incorporation efficiency opposite template adenine versus guanine: approximately three times more efficiently opposite template adenine than guanine residues
  recognition by Taq polymerase compared with TTP: virtually indistinguishable from TTP in terms of its recognition by Taq polymerase
Taq Polymerase [4]; template A
  Relative Efficiency: 0.99
  Vmax /Km: 165000 M⁻¹
  Vmax^(rel): 0.86 ± 0.06
Taq Polymerase [4]; template G
  Relative Efficiency: 0.11
  Vmax /Km: 57000 M⁻¹
  Vmax^(rel): 0.69 ± 0.08

## O=P(O)(O)OP(=O)(O)OP(=O)(O)OC[C@H]1O[C@@H](n2cnc3c(O)ncnc32)C[C@@H]1O [dITP, deoxyinosine triphosphate]
Taq Polymerase [5]; prior art
  substrate quality for Taq polymerase: poor substrate for Taq Polymerase and cannot support DNA synthesis when replacing any of the four normal dNTPs

## CON=c1[nH]c(N)nc2c1ncn2[C@H]1C[C@H](O)[C@@H](CO)O1 [K]
Taq Polymerase [5]
  recognition of template DNA containing the analogue by polymerases: recognised by polymerases such as Taq polymerase in PCR and Sequenase™ in DNA sequencing

## Cc1cn([C@H]2C[C@H](O)[C@@H](COP(=O)(O)OP(=O)(O)OP(=O)(O)O)O2)c(=O)[nH]c1=O [TTP]
Taq Polymerase [4]; template A
  Relative Efficiency: 1.00
  Vmax /Km: 167000 M⁻¹
  Vmax^(rel): 1.02 ± 0.11

## CON=c1[nH]c(N)nc2c1ncn2[C@H]1C[C@H](O)[C@@H](COP(=O)(O)OP(=O)(O)OP(=O)(O)O)O1 [dKTP, 2-Amino-9-(2-deoxy-β-D-erythropentofuranosyl)-6-methoxyaminopurine 5'-triphosphate]
Taq Polymerase [2]; 350 base pair DNA, 30 cycles
  replacement of dATP and dGTP in PCR: could replace dATP and dGTP, but only to a limited extent

## Nc1ccn([C@H]2C[C@H](O)[C@@H](COP(=O)(O)OP(=O)(O)OP(=O)(O)O)O2)c(=O)n1 [dCTP]
Taq Polymerase [4]; template G
  Relative Efficiency: 1.00
  Vmax^(rel): 1.01 ± 0.09

## O=C1NC2=NOCCC2=CN1[C@H]1C[C@H](O)[C@@H](CO)O1 [P]
Taq Polymerase [5]
  recognition of template DNA containing the analogue by polymerases: recognised by polymerases such as Taq polymerase in PCR and Sequenase™ in DNA sequencing

## CCOc1nc(=O)c(C)cn1[C@H]1C[C@H](O)[C@@H](COP(=O)(O)OP(=O)(O)OP(=O)(O)O)O1 [O^2 -ethylthymidine triphosphate]
[6]
  A→T transversions induced: induces A→T transversions, albeit at a low frequency

Source: patent US6153745A, “Relating to mutagenesis of nucleic acids” (Amersham Pharmacia Biotech UK Limited, priority 1995, dated 2000)
